Reference: patent US20260000781A1, “FC CONJUGATES INCLUDING AN INHIBITOR OF CD73 AND USES THEREOF” (Cidara Therapeutics, Inc., priority 2022, published 2026)
Where “and” joins values, the source holds several entries; their conditions need not be identical. Equal entries are not always repeated. Where two headings read alike, the source gives them in different places.

How the values were obtained:
CD73 on 4T1 mouse cells = target: T1, CD73 on 4T1 mouse cells (Mus musculus, UniProt Q61503); test: CD73 enzyme inhibition assay with mouse 4T1 cells (PiColorLock); format: cell-based; conditions: 4T1 cancer cells, AMP 100 μM
T1 construct: host or cells: 4T1
T1 sequence (Q61503 29-551): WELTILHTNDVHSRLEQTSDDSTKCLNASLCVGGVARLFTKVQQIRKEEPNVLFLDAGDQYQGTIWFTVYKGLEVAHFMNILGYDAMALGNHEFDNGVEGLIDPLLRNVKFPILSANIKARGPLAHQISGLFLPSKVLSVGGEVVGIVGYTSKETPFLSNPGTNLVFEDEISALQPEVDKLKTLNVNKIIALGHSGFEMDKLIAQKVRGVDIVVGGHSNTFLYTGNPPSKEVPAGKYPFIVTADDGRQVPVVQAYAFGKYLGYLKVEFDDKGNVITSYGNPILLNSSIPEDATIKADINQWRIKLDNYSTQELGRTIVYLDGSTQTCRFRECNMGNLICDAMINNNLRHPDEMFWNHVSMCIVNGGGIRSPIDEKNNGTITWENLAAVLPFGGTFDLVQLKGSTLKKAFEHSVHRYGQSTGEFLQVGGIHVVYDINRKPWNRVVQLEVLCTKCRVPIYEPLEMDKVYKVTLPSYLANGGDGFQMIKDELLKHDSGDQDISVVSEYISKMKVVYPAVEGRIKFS
Description: The cell-based CD73 enzyme inhibition assay was performed in a 96-well plate format using the PiColorLock phosphate assay kit in accordance with the manufacturer's instructions (Abcam cat no. 270004). 4T1 mouse cells are a model for stage IV human breast cancer (ATCC CRL-2539) and human peripheral blood mononuclear cells (PBMCs; StemCell Technologies cat no. 70025) from three different donors were assayed. 4T1 cells were washed three times with a phosphate-free CD73 buffer (Lawson et al., 2020), detached from tissue-culture flasks using a cell scraper, and seeded at 5×10^3 cells/well into 96-well tissue culture-treated plates. Human PBMCs were washed three times with phosphate-free CD73 buffer at 125×g for 10 min at room temperature and seeded at 1×10^5 cells/well into 96-well tissue culture-treated plates. Test articles were tested from 0.001 nM to 1,000 nM (4T1 cells) or 0.0001 nM to 100 nM (PBMCs) and incubated with cells for 30 min at 37° C., 5% CO2. AMP (100 μM final concentration) was added to cells and test articles, and the reaction incubated for 3 h and 24 h at 37° C., 5% CO2. The conversion of AMP to adenosine and phosphate in cell-free supernatant was quantified using the PiColorLock kit. Colorimetric detection reagent was added and the phosphate production was measured by reading the absorbance at 635 nm with the EnSpire multimode plate reader (PerkinElmer). Cells without test article (positive control) were included on each plate. Control wells without test article and cells (background) were subtracted from all wells. Percent CD73 inhibition versus inhibitor concentration was plotted using GraphPad Prism Version 8 and IC50's calculated using nonlinear regression analysis (Sigmoidal, 4 PL).

[1] = target: T2, CD73 expressed on the MDA-MB-231 cell surface (Homo sapiens, UniProt P21589); test: Cell-based CD73 enzyme inhibition assay using MDA-MB-231 cells (CellTiter-Glo)
T2 construct: host or cells: MDA-MB-231
T2 sequence (P21589 27-549): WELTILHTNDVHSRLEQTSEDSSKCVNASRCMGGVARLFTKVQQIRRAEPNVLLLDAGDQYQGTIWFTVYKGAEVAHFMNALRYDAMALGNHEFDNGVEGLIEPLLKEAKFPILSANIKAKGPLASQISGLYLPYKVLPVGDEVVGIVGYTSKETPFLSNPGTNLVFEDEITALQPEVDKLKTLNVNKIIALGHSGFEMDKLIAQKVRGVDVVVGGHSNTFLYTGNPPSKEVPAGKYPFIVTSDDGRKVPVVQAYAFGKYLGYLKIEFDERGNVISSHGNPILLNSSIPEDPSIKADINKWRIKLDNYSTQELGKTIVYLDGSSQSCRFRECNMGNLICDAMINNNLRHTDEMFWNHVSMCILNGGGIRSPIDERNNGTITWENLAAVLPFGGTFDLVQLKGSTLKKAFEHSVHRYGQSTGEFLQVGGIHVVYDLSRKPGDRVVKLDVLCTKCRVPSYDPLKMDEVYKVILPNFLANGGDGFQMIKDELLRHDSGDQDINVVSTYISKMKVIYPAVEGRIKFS
Description: The cell-based CD73 enzyme inhibition assay was performed essentially as described above for the cell-free assay, with the following modifications. MDA-MB-231 human breast adenocarcinoma cells (ATCC CRM-HTB-26) were seeded at 2×10^4 cells/well/100 μL into 96-well tissue culture-treated plates (Corning Costar cat no. 3596) and incubated overnight at 37° C., 5% CO2. Cells were incubated with test inhibitors (50 μL/well) and AMP (25 μL/well, final 400 μM) for 3 h at 37° C., 5% CO2 to allow for interaction with CD73 expressed on the MDA-MB-231 cell surface. The 96-well plate was then centrifuged at 125×g for 5 min at room temperature and ATP (25 μL/well, 100 μM final) was combined with supernatant (25 μL/well) in a white opaque 96-well plate (Corning Costar cat no. 3912). The CD73 activity in the supernatant was quantified using the CellTiter-Glo kit (Promega cat no. G7571). Percent CD73 inhibition (y-axis) versus log10 inhibitor concentration (x-axis) were plotted using GraphPad Prism Version 8 and IC50's calculated using nonlinear regression analysis (Sigmoidal, 4 PL).
An additional assay was performed to test the effect of linker length on IC50 potency using the cell-based CD73 enzyme inhibition assay. Conjugate 194, Conjugate 195, and Conjugate 196 have the same small molecule targeting moiety (Int) as Conjugate 172c (batch 9) but with varying linker lengths.

[2] = MDA-MB-231 cells, AMP 400 μM, 3 h, Table 29 experiment

SMILES	IC50 (CD73 on 4T1 mouse cells; 24 h, read-out: 24 h IC50) [nM]	IC50 (CD73 on 4T1 mouse cells; 3 h IC50 [nM], 3 h) [nM]	IC50 [1, 2]	IC50 (CD73 on 4T1 mouse cells; read-out: 3 h IC50, 3 h) [nM]	IC50 ([1]; additional assay on linker length, Table 30 experiment) [nM]
C[C@H](Nc1cc(Cl)nc2c1cnn2[C@@H]1O[C@H](COP(=O)(O)CP(=O)(O)O)[C@@H](O)[C@H]1O)c1ccccc1F [AB680]	85.7	6.79			
COC[C@](CO)(OC[C@H]1O[C@@H](n2ncc3c(NC4CCCC4)nc(Cl)nc32)[C@H](O)[C@@H]1O)P(=O)(O)O [OP-5244]	24		0.9 nM and 0.87 nM	1.67	
O=P(O)(O)COC[C@H]1O[C@@H](n2ncc3c(N4CC5(CCc6ccccc65)C4)nc(Cl)nc32)[C@H](O)[C@@H]1O [SHR170008]	114		3.7 nM	8.2	4
